Experimental data from patent US20250214998A1, “CYCLIC COMPOUNDS AS RECEPTOR MODULATING THERAPEUTICS AND METHODS AND USES THEREOF” (BIONOMICS LIMITED, priority 2018, published 2025).

Assays:
[1] = A2B permeability (Papp) in MDCK-MDR1 cell monolayers; format: in vitro ADME; design: dose or concentration left out as unconfirmed; conditions: dog; MDCK-MDR1 monolayer, A-B direction, HBSS pH 7.4, 60 min, 37° C.
Protocol: (§1) MDCK-MDR1 cells obtained from the NIH (Rockville, MD, USA) are used between passage numbers 6-30. Cells are seeded onto Millipore Multiscreen Transwell plates at 3.4×10^5 cells/cm2. The cells are cultured in DMEM and media is changed on day 3. On day 4 the permeability study is performed. Cell culture and assay incubations are carried out at 37° C. in an atmosphere of 5% CO2 with a relative humidity of 95%. On the day of the assay, the monolayers are prepared by rinsing both apical and basolateral surfaces twice with Hanks Balanced Salt Solution (HBSS) at the desired pH warmed to 37° C. Cells are then incubated with HBSS at the desired pH in both apical and basolateral compartments for 40 min to stabilise physiological parameters.
(§2) The dosing solutions are prepared by diluting test compound with assay buffer to give a final test compound concentration of […] (final DMSO concentration of 1% v/v). The fluorescent integrity marker lucifer yellow is also included in the dosing solution. […]
(§3) Test compound permeability is assessed in duplicate. […]
(§4) Test and control compounds are quantified by LC-MS/MS cassette analysis using a 7-point calibration with appropriate dilution of the samples. […] The starting concentration (CO) is determined from the dosing solution and the experimental recovery calculated from CO and both apical and basolateral compartment concentrations.
(§5) The integrity of the monolayer throughout the experiment is checked by monitoring lucifer yellow permeation using fluorimetric analysis. […] If a lucifer yellow Papp value is above a pre-defined threshold in one well, but the derived Papp result for test compound or marker compound in that well is qualitatively similar to that determined in the remaining replicate well (within the lucifer yellow threshold) then, based upon the scientific judgement of the responsible scientist, the cell monolayer may be considered acceptable. […] If this re-occurs upon repeat in both wells then toxicity or inherent fluorescence of the test compound is assumed. […]

MDCK-MDR1 cells = assay: as above; format: in vitro ADME; design: dose or concentration left out as unconfirmed; conditions: MDCK-MDR1 monolayer, A-B direction, HBSS pH 7.4, 60 min, 37° C.
Protocol: as §1, §2, §3, §4, §5

Structure (SMILES)	Papp A→B at 60 min [1] [×10⁻⁶ cm/s]	A2B Papp (MDCK-MDR1 cells)
CCn1cc(C(=O)N2C[C@H]3C[C@@H]2CO3)c(=O)c2cc(OC3Cc4ccccc4C3)cnc21 (stereo in doubt) [Example 17, 1-Ethyl-6-indan-2-yloxy-3-[(1R,4R)-2-oxa-5-azabicyclo[2.2.1]heptane-5-carbonyl]-1,8-naphthyridin-4-one]	0.87	–
CCn1cc(C(=O)N2C3COCC2C3)c(=O)c2cc(OC3Cc4ccccc4C3)cnc21 [Example 16, 1-Ethyl-6-indan-2-yloxy-3-(3-oxa-6-azabicyclo[3.1.1]heptane-6-carbonyl)-1,8-naphthyridin-4-one]	–	16 2.06 10^−6 cm/s
CCn1cc(C(=O)N2CC3(CCOCC3)C2)c(=O)c2cc(OC3Cc4ccccc4C3)cnc21 [Example 23, 1-Ethyl-6-indan-2-yloxy-3-(7-oxa-2-azaspiro[3.5]nonane-2-carbonyl)-1,8-naphthyridin-4-one]	–	23 1.24 10^−6 cm/s
